This is an account of results in PubChem BioAssay AID624360 (Broad Institute, 2012).

Inconclusive results are not listed. Activity calls are given as the source filed them.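 Rule for the calls: active = fitted curve falls past -35% activity change at a concentration under twice the top valid dose, in every test run; inconclusive = test runs disagree, some active and some inactive; inactive = all test runs inactive, including signal rising instead of falling.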

One assay is described as follows: inhibitors of IL-1beta-stimulated NF-kB luciferase reporter, dose response, selectivity assay for EBV LMP1 NF-kB inhibitor project, LMP1 TES2-inducible cells, dry powder (AID 624360). Particulars: HEK293, 16 h. A general note: In a reporter assay the amount or activity of a reporter protein is the signal.
Take `CC12CCC3C(CC=C4CC(O)CCC43CO)C1CCC2OC(=O)c1ccccc1` (centres undefined): the AC35 is 3.88 µM.

The assay is the same for the next values; noted with them: HEK293 IL-1beta-induced NF-kB luciferase reporter (LMP1 TES2-inducible cell line), 16 h.
`C/C=C/C/C=C/CCC(=O)[C@H]1O[C@H]1C(N)=O`: the AC35 was 7.67 µM. The same measure, in the same setting: the same measure for `C/C(=N\NC(=S)N1CCCCC1)c1ccccn1`: 0.168 µM; for `C/C(=N\NC(=S)N1CCCC1)c1ccccn1`: 0.156 µM. On the same count and under the same terms, the same measure for `CCC(Sc1nnc2c3ccccc3n(Cc3ccc(Br)cc3)c2n1)C(=O)NCCCN1CCOCC1` (centres undefined): 2.71 µM; for `CC1CN(C(=O)CSc2nnc3c4ccccc4n(Cc4cccc(Cl)c4)c3n2)CCN1C(=O)c1ccccc1F` (centres undefined): 9.28 µM. The same measure, in the same setting: the same measure for `C/C(=N\NC(=S)N1CCC1)c1ccccn1`: 0.287 µM. For the compound `Cc1cc(NC(=O)c2ccc3c(c2)OCCO3)no1`, the AC35 is 111 µM. Consider `S=C(N/N=C(\c1ccccc1)c1ccccn1)N(Cc1ccccn1)Cc1ccccn1`, for which the AC35 was 0.769 µM.

Take `Cc1ccc(S(=O)(=O)Nc2ccc3c(c2)C(=O)N([C@@H](C)CO)C[C@H](C)[C@@H](CN(C)C(=O)CCC(F)(F)F)OCCCC[C@H](C)O3)cc1`: the AC35 is 0.488 µM. Still for that read-out and setting: the result for `C[C@@H]1CN([C@@H](C)CO)C(=O)c2cccc(NC(=O)Nc3cccc4ccccc34)c2O[C@H]1CN(C)C(=O)Nc1ccc(C(F)(F)F)cc1` reads 11.4 µM; that for `CCCSc1nnc2c3ccccc3n(Cc3ccccc3)c2n1`, 2.61 µM; that for `Nc1ccn([C@@H]2O[C@H](CO)[C@@H](O)C2O)c(=O)n1` (some centres undefined), 15.8 µM. For `C[C@@H]1CN([C@@H](C)CO)C(=O)c2cc(NC(=O)Nc3ccc4c(c3)OCO4)ccc2O[C@H]1CN(C)CC1CCCCC1`, the AC35 was 2.7 µM. In the case of `COc1ccccc1[C@]1(C)ON(c2ccccc2C(F)(F)F)C1=O`, the AC35 was 8.17 µM. With `C/C(=N\NC(=S)N1CCCCCC1)c1ccccn1`, the AC35 is 0.213 µM. `C/C(=N\NC(=S)N1CCCCC1)c1cccc(C)n1`: the AC35 was 0.343 µM. Take `O=c1[nH]c(Nc2nc3ccccc3o2)nc2c1CCCC2`: the AC35 is 107 µM. Still for that read-out and setting: the same measure for `Cc1ccc(NC(=O)C2CCN(S(=O)(=O)c3ccc4c(c3)NC(=O)C(C)S4)CC2)cc1Cl` (centres undefined): 3.67 µM; for `COc1ccc2[nH]c(C(=O)N/N=C/c3ccc(O)cc3O)cc2c1`: 6.48 µM; for `C/C(=N\NC(=S)Nc1ccccc1)c1ccccn1`: 0.522 µM. Same read-out and setting: the same measure for `C/C(=N\NC(=S)N1CC2CCC(CC2)C1)c1ccccn1`: 0.913 µM; for `C[C@H](CO)N1C[C@H](C)[C@H](CN(C)C(=O)Nc2ccc(C(F)(F)F)cc2)OCCCC[C@H](C)Oc2ccc(NC(=O)Nc3ccc(F)cc3)cc2C1=O`: 7.85 µM.

In the case of `C[C@H](CO)N1C[C@H](C)[C@@H](CN(C)Cc2ccc(-c3ccccc3)cc2)Oc2ccc(NC(=O)Nc3cccc4ccccc34)cc2CC1=O`, the AC35 was 4.64 µM. Same read-out and setting: the same measure for `C[C@@H]1CCCCO[C@H](CN(C)C(=O)NC2CCCCC2)[C@H](C)CN([C@@H](C)CO)C(=O)c2cc(NC(=O)C3CCCCC3)ccc2O1`: 11.7 µM; for `C/C(=N\NC(=S)N1CC2CCC(CC2)C1)c1cnccn1`: 0.0862 µM; for `O=C1/C(=C/c2ccncc2)SC(=S)N1Cc1ccccc1`: 91.5 µM. As for `CCN1CCN(C(c2cccnc2)c2cc(Cl)c3cccnc3c2O)CC1` (centres undefined), the AC35 was 5.66 µM. In the case of `C[C@H](CO)N1C[C@H](C)[C@@H](CN(C)CC2CC2)OCCCC[C@H](C)Oc2ccc(NC(=O)Nc3cccc4ccccc34)cc2C1=O`, the AC35 is 1.13 µM. Same read-out and setting: the result for `S=C(NCc1ccccn1)N/N=C/c1ccccn1` reads 1.98 µM; that for `CC(C)=CCN(C(=O)C#Cc1ccccc1)[C@H](CO)c1ccccc1`, 2.5 µM; that for `COc1ccc2nc(Nc3nc(C)c(CCC(C)C)c(=O)[nH]3)nc(C)c2c1`, 2.72 µM.

As for `Fc1ccc2c(c1)c1nnc(SCCN3CCOCC3)nc1n2Cc1ccccc1`, the AC35 is 4.49 µM.

Still in this assay, the particulars now being: HEK293 IL-1beta-induced NF-kB luciferase reporter (LMP1 TES2-inducible cell line), 16 h; at 15 µM (top of the series).
With `C=C1C[C@]23C[C@@]1(O)CC[C@H]2[C@@]12C=C[C@H](O)[C@@](C)(C(=O)O1)[C@H]2[C@@H]3C(=O)O`, the activity change, negative = inhibition was 13.6% (inactive).

Still in this assay, the particulars now being: HEK293 IL-1beta-induced NF-kB luciferase reporter (LMP1 TES2-inducible cell line), 16 h; at 26 µM (top of the series).
Turning to `COc1ccc(C(=O)Nc2ccc3[nH]ccc3c2)cc1`, the activity change, negative = inhibition is 20.3% (inactive). Turning to `C[C@@H]1CN([C@@H](C)CO)C(=O)c2cc(NC(=O)Nc3ccc(C(F)(F)F)cc3)ccc2O[C@@H](C)CCCCO[C@H]1CN(C)Cc1ccc(C(F)(F)F)cc1`, the activity change, negative = inhibition is 12.7% (inactive). On to `C[C@@H]1CCCCO[C@H](CN(C)S(=O)(=O)c2ccccc2)[C@@H](C)CN([C@@H](C)CO)C(=O)c2cc(N(C)C)ccc2O1`, for which the activity change, negative = inhibition was 9.13% (inactive). Regarding `CCc1sc(C(=O)Nc2ncccc2O)cc1C`, the activity change, negative = inhibition was 6.99% (inactive). Same read-out and setting: the same measure for `COc1ccc(-c2cc3nc4n(c(=O)c3s2)CCC4)cc1`: 19.5% (inactive).

For `CCc1ccc(/C=C2\SC(=S)N(CCCC(=O)Nc3ccccn3)C2=O)cc1`, the activity change, negative = inhibition was 40.6% (inactive).

Regarding `C=CCN1Cc2ccccc2[C@@H]2OC(c3ccc(OCCCO)cc3)=N[C@]2(CCC(=O)OC(C)(C)C)C1=O`, the activity change, negative = inhibition was 37.8% (inactive).

`Cc1c(NC(=O)c2cccc(NC(=O)COc3ccccc3C#N)c2)c(=O)n(-c2ccccc2)n1C`: the activity change, negative = inhibition is 14.8% (inactive). Still for that read-out and setting: the same measure for `c1ccc(-c2cn3c4c(sc3n2)CCCC4)cc1`: 8.88% (inactive); for `C[C@@H]1CCCCO[C@H](CN(C)CC2CCCCC2)[C@H](C)CN([C@@H](C)CO)C(=O)c2cc(NC(=O)NC3CCCCC3)ccc2O1`: -0.708% (inactive).
